Laboratory results: article PMC8764033, “Single-molecule analysis of specificity and multivalency in binding of short linear substrate motifs to the APC/C” (Nature Communications, 2022)
Entries after “also recorded” stand apart in the source; their conditions may differ. Where a SMILES comes first, the peptide text is derived from it.

Target: T1, Cdh1^WD40 (Saccharomyces cerevisiae, UniProt P53197)
T1 construct: the WD40 domains of yeast Cdh1 (aa 241–550; pNH144); made in house; host or cells: Sf9 insect cells (baculovirus)
T1 sequence (P53197 241-550): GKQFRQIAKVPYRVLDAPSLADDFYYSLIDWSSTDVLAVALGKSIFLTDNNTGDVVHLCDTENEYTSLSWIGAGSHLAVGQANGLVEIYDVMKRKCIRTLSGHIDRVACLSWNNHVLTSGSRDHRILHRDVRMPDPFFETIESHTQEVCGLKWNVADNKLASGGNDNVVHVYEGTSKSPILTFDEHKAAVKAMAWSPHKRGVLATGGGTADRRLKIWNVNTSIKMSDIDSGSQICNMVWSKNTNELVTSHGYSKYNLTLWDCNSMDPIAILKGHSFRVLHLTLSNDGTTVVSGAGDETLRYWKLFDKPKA
Experiment: SMOR assay (single-molecule off-rate, TIRF), yeast Cdh1^WD40
Assay type: binding
Method: Activators were cloned into the pFastBac HT A vector, with an N-terminal 2xStrep-Tag II. For some experiments, we constructed vectors for expression of the WD40 domains of yeast Cdh1 (aa 241–550; pNH144), human Cdh1 (aa 165–484; pNH164), or human Cdc20 (aa 162–484; pNH188). For SMOR, a C-terminal GFP tag was added. Bacmid plasmids are listed in Supplementary Table 3. Plasmids were transformed into DH10Bac cells, and purified Bacmid was used to transfect Sf9 cells to generate P1 baculovirus, which was used to generate P2 virus. SF9 cells were infected with the P2 virus for 48 h. Flash-frozen pellets were lysed by sonication or high-pressure homogenization in lysis buffer B (50 mM Tris-HCl pH 8, 150 mM KCl, 0.5 mM EDTA, 1 mM DTT, 10% Glycerol, EDTA-free protease inhibitor tablet, 1 µg ml^−1 pepstatin A). After the lysate was applied to the StrepTrap column, the column was washed with wash buffer B (lysis buffer B lacking protease inhibitors) and eluted in the same buffer containing 2.5 mM desthiobiotin.
For all SMOR experiments, 24 × 50 mm high precision glass coverslips (Bioscience Tools) and drilled microscope slides were passivated with a combination of PEG and PEG-biotin (coverslips) or PEG only (slides) following a previously published protocol for SiMPull[31]. Reaction chambers (~20 µl) were created using double-sided tape and epoxy. Protein was immobilized on the surface with 0.2 mg ml^−1 NeutrAvidin in buffer C (20 mM HEPES pH 7.5, 150 mM KCl, 10% glycerol, 0.05% Tween-20, 1 mM DTT). Excess NeutrAvidin was washed away and incubated with either biotin-conjugated mouse monoclonal anti-Strep-Tag II antibody (LSBio, Cat. No. LS-C203632-100) or biotin-conjugated rabbit polyclonal anti-GFP antibody (Rockland, Cat. No. 600-406-215) diluted in buffer C + BSA (0.1 mg ml^−1; Molecular Biology Grade Bovine Serum Albumin). Activator WD40 and activated APC/C (typically 50 µl containing about 65 ng APC/C, of which only a small fraction is immobilized on the glass) were immobilized using anti-Strep-Tag II, while APC/C alone was immobilized with anti-GFP. SMOR results were similar when performed in the buffer (wash buffer B) used in polarization anisotropy.
To capture dynamic protein–protein interactions, dye-labeled substrate diluted in buffer C + BSA was added to the chamber containing immobilized proteins. Interactions were imaged by TIRF microscopy as described below. For optimal signal-to-noise ratio, peptide concentration was no greater than 1 nM. Protein substrates included Hsl1 aa 667–872 and a C-terminal HaloTag followed by a TAP tag, and were produced by translation in rabbit reticulocyte lysates using TnT Quick Coupled Transcription/Translation System (Promega) (see Supplementary Table 5 for plasmids). Protein was purified with magnetic IgG beads and labeled on the bead with JF549 or JF646 dye so that unbound dye could be washed away. Purified dye-labeled protein was then cleaved from the beads using TEV protease. Before adding substrate to the reaction chamber, oxygen scavenging reagents were added (10 nM protocatechuate-3,4-dioxygenase, 2.5 mM protocatechuic acid, and 1 mM Trolox)[41]. A detailed description of the SMOR analysis pipeline is found in Supplementary Note 1.
Microscopy was performed with a Nikon Eclipse TE2000-E with Perfect Focus with a 100 × 1.49na oil, Apo TIRF DIC N2, 0.13-0.2, WD0.12 objective. Movies were recorded using the Andor iXon DU-897E-CSO. For visualizing GFP-tagged protein, a 491 nm laser was used with an ET525/50 (Chroma) filter for emission. For visualizing JF549-labeled substrate, a 561 nm laser was used with an ET595/50 (Chroma) filter for emission. For visualizing all Cy5-labeled peptides and JF646-labeled substrates, a 640 nm laser was used with an ET685/70 filter (Chroma) for emission. […]

[1] = Supplementary Table 1, replicate 1
[2] = Supplementary Table 1, replicate 2

Molecule	Dwell Time (in words) [1]	Dwell Time (in words) [2]	binding (in words)
CC(C)C[C@H](NC(=O)[C@H](C)NC(=O)[C@H](CCCNC(=N)N)NC(=O)[C@H](CCCNC(=N)N)NC(=O)[C@@H]1CCCN1C(=O)[C@H](CCCCN)NC(=O)[C@H](CO)NC(=O)[C@H](CC(=O)O)NC(=O)[C@@H](N)CCC(N)=O)C(=O)N[C@H](C(=O)N[C@@H](CC(=O)O)C(=O)N[C@H](C(=O)N1CCC[C@H]1C(=O)N[C@H](C(=O)N[C@@H](CC(N)=O)C(=O)N[C@@H](CC(N)=O)C(=O)N[C@@H](CC(N)=O)C(=O)N1CCC[C@H]1C(=O)N[C@@H](CC(C)C)C(=O)N[C@@H](CO)C(=O)N[C@@H](CCC(N)=O)C(=O)N[C@@H](CCCCN)C(=O)O)C(C)C)C(C)C)[C@@H](C)O [Clb5 D box] (H-QDSKPRRALTDVPVNNNPLSQK-OH; N-terminus and C-terminus assumed)	single frame	single frame	
CC[C@H](C)[C@H](NC(=O)[C@H](CC(=O)O)NC(=O)[C@H](CO)NC(=O)[C@H](C)NC(=O)[C@H](C)NC(=O)[C@H](C)NC(=O)[C@H](C)NC(=O)[C@H](CCCCN)NC(=O)[C@@H]1CCCN1C(=O)[C@H](CCCCN)NC(=O)[C@H](CCC(N)=O)NC(=O)[C@@H](N)CCC(=O)O)C(=O)N[C@H](C(=O)N[C@@H](C)C(=O)N[C@@H](CO)C(=O)N[C@@H](Cc1ccccc1)C(=O)N[C@@H](CC(N)=O)C(=O)N[C@@H](CCCCN)C(=O)N[C@@H](CCSC)C(=O)N[C@@H](CC(N)=O)C(=O)N[C@@H](CCCCN)C(=O)O)[C@@H](C)O [Hsl1 D box mutant] (H-EQKPKAAAASDITASFNKMNK-OH; N-terminus and C-terminus assumed)	no binding	no binding	negligible binding; also recorded: No binding
CC[C@H](C)[C@H](NC(=O)[C@H](Cc1ccccc1)NC(=O)[C@H](CO)NC(=O)[C@H](CCCCN)NC(=O)[C@H](CO)NC(=O)[C@H](CCCNC(=N)N)NC(=O)[C@H](CC(N)=O)NC(=O)[C@H](CC(N)=O)NC(=O)[C@H](CC(=O)O)NC(=O)[C@H](CCCCN)NC(=O)[C@H](C)NC(=O)[C@H](C)NC(=O)[C@H](CC(C)C)NC(=O)[C@@H]1CCCN1C(=O)[C@H](CC(C)C)NC(=O)[C@H](CCCNC(=N)N)NC(=O)CNC(=O)[C@H](CCC(N)=O)NC(=O)[C@H](CCC(N)=O)NC(=O)[C@H](CCC(N)=O)NC(=O)[C@H](C)N)C(=O)N[C@@H](CCCCN)C(=O)O [ySecurin D box] (H-AQQQGRLPLAAKDNNRSKSFIK-OH; N-terminus and C-terminus assumed)	single frame	single frame	
LIYVDKENGEPGTR-K(Cy5) [hSecurin KEN, Cy5-labeled KEN box peptide of human securin/Pttg1]	no binding	no binding	No binding
LPKATRKALGTVNRATEKSVK-K(Cy5) [AurKB D box, Cy5-labeled D box peptide of Aurora B kinase]	single frame	single frame	
SKAAQFMLYEETAEERNI-K(Cy5) [Acm1 ABBA, Cy5-labeled Cdh1-specific ABBA motif from pseudosubstrate yeast protein Acm1]	single frame	single frame	
